Where “and” joins values, the source holds several entries; their conditions need not be identical. Equal values may be shown once.
System: NCI-H196 complex spheroid growth, percent test/control
Assay: Anticancer human tumor NCI-H196 cell line growth inhibition [AhR];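 also: seven days of drug exposure starting three days after plating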;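 as to viability, T/C: 100% = DMSO vehicle control wells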
Conditions: for viability, T/C: stronger effect = lower value
From the text: Multicellular complex tumor spheroid response to aryl hydrocarbon receptor antagonists in combination with a variety of drugs and investigational agents in selected tumor cell lines
The current study was undertaken to assess response to aryl hydrocarbon receptor antagonists in combination with standard-of-care drugs and investigational agents in solid tumor complex spheroid models. Complex spheroids include a stromal component modeled by human endothelial cells (HUVEC) and fibroblasts modeled by human mesenchymal stem cells (MSCs). The concentration ranges selected for each drug and investigational agent were based upon clinically achievable concentrations if the clinical Cmax of the agent was known.
Compounds. The drugs and investigational agents: BAY 2416964 (NSC825713), GNF351 (NSC835774), CH-223191 (NSC835775), CPI-455 (NSC825282), aza-TdCyd (NSC777586), decitabine (NSC127716), belinostat (NSC758774), entinostat (NSC756642), pevonedistat (NSC761192), tazemetostat (NSC777109), talazoparib (NSC765396), olaparib (NSC753686), selinexor (NSC780203), nedisertib (M3814, NSC802822), bortezomib (NSC756655), venetoclax (NSC766270), doxorubicin (NSC123127), elimusertib (BAY189344, NSC800525), ceralasertib (AZD6738, NSC777638), TAK-243 (NSC785004), alisertib (NSC759677), etoposide (NSC141540), topotecan (NSC609699), eribulin (NSC707389), gemcitabine (NSC613327), carboplatin (NSC241240), cisplatin (NSC119875), and SN-38 (NSC673596) were obtained from the National Cancer Institute (NCI) Developmental Therapeutics Program Chemical Repository (32). The FDA-approved anticancer drug set is available from the Developmental Therapeutics Program at https://dtp.cancer.gov/organization/dscb/obtaining/available plates.htm. […] The stock solutions were prepared in dimethyl sulfoxide (DMSO, Sigma-Aldrich, St. Louis, MO, cat. D2650), except for the platinum compounds which were prepared in saline (Quality Biological, Gaithersburg, MD, cat. 114-055-101), at 800-fold the tested concentration and stored at -70 degrees C prior to their use. All drugs and investigational agents were tested over a range starting from a high concentration at or near the clinical Cmax and decreasing in half-log increments. If the clinical Cmax for an agent had not been determined, the highest concentration tested was 10 microM (Table 1).
Cell Culture. All cells were maintained in an incubator at 37 degrees C and 5% CO2 with 95% humidity. The PDC lines were cultured according to standard operating procedures established by the NCI PDMR (https://pdmr.cancer.gov). Briefly, all PDCs were thawed and cultured in Matrigel-coated flasks prepared with a working solution of 1X Ham's F-12 nutrient mix, without supplementation (Invitrogen, Waltham, MA, cat. 11765054), 100 U/mL penicillin-streptomycin (Invitrogen, cat. 15140122), and 2.5% Matrigel (Corning Inc., Corning, NY, cat. 354248) for the first three passages. All PDCs were cultured in complete DMEM/F-12 media containing advanced DMEM/F-12 (Invitrogen, cat. 12634028), 4.9% defined fetal bovine serum, heat inactivated (HyClone Laboratories Inc., Logan, UT, cat. SH30070.03HI), 389 ng/mL hydrocortisone (Sigma-Aldrich, cat. H4001), 9.7 ng/mL human EGF recombinant protein (Invitrogen, cat. PHG0313), 23.4 microg/mL adenine (Sigma-Aldrich, cat. A2786), 97.3 U/mL penicillin-streptomycin (Invitrogen, cat. 15140122), 1.9 mM L-glutamine (Invitrogen, cat. 25030081), and 9.7 microM Y-27632 dihydrochloride (Tocris Bioscience, Bristol, United Kingdom, cat. 1254). The PDCs were cultured in complete DMEM/F12 media without 10 microM Y-27632 dihydrochloride for at least two passages prior to the screen. The established cell lines NCI-H1341 and […] were cultured in DMEM/F-12, HEPES (Invitrogen, cat. 11330032), 5% defined fetal bovine serum (HyClone Laboratories Inc., cat. SH30070.03), ITS premix universal culture supplement [insulin (5 microg/mL), transferrin (5 microg/mL), and selenious acid (5 ng/mL)] […]

[1] = curve of first compound, second compound 0.1 µM
[2] = curve of first compound, second compound 0.316 µM
[3] = curve of first compound, second compound 1 µM
[4] = curve of first compound, second compound 3.16 µM
[5] = curve of first compound, second compound 10 µM
[6] = second compound 0.1 µM, first compound 0.0316 µM
[7] = second compound 0.1 µM, first compound 0.1 µM
[8] = second compound 0.1 µM, first compound 0.316 µM
[9] = second compound 0.1 µM, first compound 1 µM
[10] = second compound 0.1 µM, first compound 3.16 µM
[11] = second compound 0.1 µM, first compound 10 µM
[12] = second compound 0.316 µM, first compound 0.0316 µM
[13] = second compound 0.316 µM, first compound 0.1 µM
[14] = second compound 0.316 µM, first compound 0.316 µM
[15] = second compound 0.316 µM, first compound 1 µM
[16] = second compound 0.316 µM, first compound 3.16 µM
[17] = second compound 0.316 µM, first compound 10 µM
[18] = second compound 1 µM, first compound 0.0316 µM
[19] = second compound 1 µM, first compound 0.1 µM
[20] = second compound 1 µM, first compound 0.316 µM
[21] = second compound 1 µM, first compound 1 µM
[22] = second compound 1 µM, first compound 3.16 µM
[23] = second compound 1 µM, first compound 10 µM
[24] = second compound 3.16 µM, first compound 0.0316 µM
[25] = second compound 3.16 µM, first compound 0.1 µM
[26] = second compound 3.16 µM, first compound 0.316 µM
[27] = second compound 3.16 µM, first compound 1 µM
[28] = second compound 3.16 µM, first compound 3.16 µM
[29] = second compound 3.16 µM, first compound 10 µM
[30] = second compound 10 µM, first compound 0.0316 µM
[31] = second compound 10 µM, first compound 0.1 µM
[32] = second compound 10 µM, first compound 0.316 µM
[33] = second compound 10 µM, first compound 1 µM
[34] = second compound 10 µM, first compound 3.16 µM
[35] = second compound 10 µM, first compound 10 µM

IC50 [1] [µM]	IC50 [2] [µM]	IC50 [3] [µM]	IC50 [4] [µM]	IC50 [5] [µM]	SMILES	viability, T/C [6] [%]	viability, T/C [7] [%]	viability, T/C [8] [%]	viability, T/C [9] [%]	viability, T/C [12] [%]	viability, T/C [13] [%]	viability, T/C [14] [%]	viability, T/C [15] [%]	viability, T/C [18] [%]	viability, T/C [19] [%]	viability, T/C [20] [%]	viability, T/C [21] [%]	viability, T/C [24] [%]	viability, T/C [25] [%]	viability, T/C [26] [%]	also measured
> 10	> 10	> 10	> 10	> 10	O=C(c1cc(Cc2n[nH]c(=O)c3ccccc23)ccc1F)N1CCN(C(=O)C2CC2)CC1 + Cc1cncc(-c2nc(NCCc3c[nH]c4ccccc34)c3ncn(C(C)C)c3n2)c1	103	102	96.1	96	101	101	103	94	105	90.5	105	93.4	113	106	98.1	viability, T/C [10]: 98.8%; viability, T/C [11]: 87.4%; viability, T/C [16]: 107%; viability, T/C [17]: 91.2%; viability, T/C [22]: 101%; viability, T/C [23]: 97.7%; viability, T/C [27]: 99.7%; viability, T/C [28]: 103%; viability, T/C [29]: 99.6%; viability, T/C [30]: 81.9%; viability, T/C [31]: 91.7%; viability, T/C [32]: 87.4%; viability, T/C [33]: 88.7%; viability, T/C [34]: 86.9%; viability, T/C [35]: 93.8%
> 10	> 10	> 10	> 10	> 10	CC(C)c1c(-c2ccccc2)nc2c(C#N)c[nH]n2c1=O + Cc1ccccc1N=Nc1ccc(NC(=O)c2ccnn2C)c(C)c1	103	104	89.5	99.1	95.6	99.4	99.4	93.6	97.7	96.9	101	97	109	100	101	viability, T/C [10]: 112%; viability, T/C [11]: 97.9%; viability, T/C [16]: 103%; viability, T/C [17]: 88.7%; viability, T/C [22]: 99.3%; viability, T/C [23]: 104%; viability, T/C [27]: 96.3%; viability, T/C [28]: 94.9%; viability, T/C [29]: 104%; viability, T/C [30]: 95%; viability, T/C [31]: 98%; viability, T/C [32]: 96.5%; viability, T/C [33]: 95.7%; viability, T/C [34]: 96.1%; viability, T/C [35]: 95.7%

The remaining lines, values behind:

SMILES	IC50 [1] [µM]	IC50 [2] [µM]	IC50 [3] [µM]	IC50 [4] [µM]	IC50 [5] [µM]	viability, T/C [6] [%]	viability, T/C [7] [%]	viability, T/C [8] [%]	viability, T/C [9] [%]	viability, T/C [12] [%]	viability, T/C [13] [%]	viability, T/C [14] [%]	viability, T/C [15] [%]	viability, T/C [18] [%]	viability, T/C [19] [%]	viability, T/C [20] [%]	viability, T/C [21] [%]	viability, T/C [24] [%]	viability, T/C [25] [%]	viability, T/C [26] [%]	also measured
O=C(c1cc(Cc2n[nH]c(=O)c3ccccc23)ccc1F)N1CCN(C(=O)C2CC2)CC1 + CC(CO)NC(=O)c1cc(-c2ccc(Cl)cc2)nn(-c2cnn(C)c2)c1=O	> 10	> 10	> 10	> 10	> 10	109	114	99.8	93.3	103	109	103	102	105	102	99.7	102	101	103	107	viability, T/C [10]: 106%; viability, T/C [11]: 96.3%; viability, T/C [16]: 105%; viability, T/C [17]: 96.8%; viability, T/C [22]: 102%; viability, T/C [23]: 98.7%; viability, T/C [27]: 98.9%; viability, T/C [28]: 109%; viability, T/C [29]: 94.9%; viability, T/C [30]: 113%; viability, T/C [31]: 103%; viability, T/C [32]: 109%; viability, T/C [33]: 109%; viability, T/C [34]: 109%; viability, T/C [35]: 102%
Nc1ncn(C2CC(O)C(CO)O2)c(=O)n1 (configuration not stated) + Cc1ccccc1N=Nc1ccc(NC(=O)c2ccnn2C)c(C)c1	> 1	> 1	> 1	> 1	> 1	94.7	94.4	104	96.6	108	103	108	96.4	106	101	84.9	94.5	105	86.4	92.5	viability, T/C (second compound 0.1 µM, first compound 0.00316 µM): 92.6%; viability, T/C (second compound 0.1 µM, first compound 0.01 µM): 105%; viability, T/C (second compound 0.316 µM, first compound 0.00316 µM): 104%; viability, T/C (second compound 0.316 µM, first compound 0.01 µM): 104%; viability, T/C (second compound 1 µM, first compound 0.00316 µM): 88.7%; viability, T/C (second compound 1 µM, first compound 0.01 µM): 104%; viability, T/C (second compound 3.16 µM, first compound 0.00316 µM): 97%; viability, T/C (second compound 3.16 µM, first compound 0.01 µM): 86.9%; viability, T/C [27]: 89.8%; viability, T/C (second compound 10 µM, first compound 0.00316 µM): 90%; viability, T/C (second compound 10 µM, first compound 0.01 µM): 97.3%; viability, T/C [30]: 87.6%; viability, T/C [31]: 86.7%; viability, T/C [32]: 78.7%; viability, T/C [33]: 83%
Nc1ccccc1NC(=O)c1ccc(CNC(=O)OCc2cccnc2)cc1																					viability, T/C (compound 0.0316 µM): 84.5% and 90.6% and 85.8%; viability, T/C (compound 0.1 µM): 73.3% and 82.2% and 79.5%; viability, T/C (compound 0.316 µM): 59.8% and 65.2% and 60.3%; viability, T/C (compound 1 µM): 35.9% and 48.4% and 33.5%; viability, T/C (compound 3.16 µM): 15.2% and 17.5% and 16.5%; viability, T/C (compound 10 µM): 0.66% and 0.89% and 0.63%; IC50 (curve of compound): 0.492 µM and 0.773 µM and 0.509 µM

Reference: PubChem BioAssay AID1919016 (Molecular Pharmacology Branch, DTP, NCI, 2023)
